# Laboratory results as given in article PMC8102459, “3,3′-Thiodipropionic acid (TDP), a possible precursor for the synthesis of polythioesters: identification of TDP transport proteins in Variovorax paradoxus TBEA6” (Applied Microbiology and Biotechnology, 2021).
# Tests used:
# Assay in all cases: thermal shift assay, SYPRO Orange, real-time PCR
# Format in all cases: binding
# [1] = biological target: T1, TctC protein with locus tag VPARA-01760 (Variovorax paradoxus, UniProt A0A0H2MDR2); conditions: 1 μM protein, sodium phosphate pH 7.4, 0.1 to 3000 μM ligand
# T1 construct: gene VPARA_01760; His-tagged (pET19b or pET23a)
# T1 sequence (A0A0H2MDR2 1-326 limits assumed): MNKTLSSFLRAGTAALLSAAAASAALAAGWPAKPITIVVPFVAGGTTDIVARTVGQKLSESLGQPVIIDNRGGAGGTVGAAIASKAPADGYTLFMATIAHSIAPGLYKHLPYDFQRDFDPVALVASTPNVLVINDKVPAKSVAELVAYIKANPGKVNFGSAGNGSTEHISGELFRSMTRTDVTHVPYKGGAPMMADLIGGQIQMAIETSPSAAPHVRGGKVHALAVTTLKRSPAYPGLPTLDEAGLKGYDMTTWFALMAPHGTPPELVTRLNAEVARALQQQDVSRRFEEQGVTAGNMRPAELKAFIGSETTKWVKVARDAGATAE
# [2] = biological target: T2, TctC-44430 (TctC, locus tag VPARA-44430) (Variovorax paradoxus, UniProt A0A0H2LXQ8); conditions: 1 μM protein, sodium phosphate pH 7.4; value is the melting temperature, not the shift; control Tm not given
# T2 construct: gene VPARA_44430; His-tagged (pET19b N-terminal; pET23a C-terminal also made), E. coli BL21
# T2 sequence (A0A0H2LXQ8 1-329 limits assumed): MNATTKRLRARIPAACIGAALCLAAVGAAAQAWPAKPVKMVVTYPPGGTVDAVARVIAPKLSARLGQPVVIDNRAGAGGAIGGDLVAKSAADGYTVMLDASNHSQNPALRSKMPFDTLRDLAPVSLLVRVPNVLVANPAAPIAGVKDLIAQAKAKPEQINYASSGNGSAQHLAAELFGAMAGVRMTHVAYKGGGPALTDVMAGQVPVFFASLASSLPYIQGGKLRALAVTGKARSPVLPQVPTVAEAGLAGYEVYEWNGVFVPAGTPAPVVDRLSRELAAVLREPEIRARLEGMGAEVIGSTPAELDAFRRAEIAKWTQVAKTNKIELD
# [3] = biological target: T2, TctC-44430 (TctC, locus tag VPARA-44430); conditions: 1 μM protein, sodium phosphate pH 7.4; value is the melting temperature, not the shift; control Tm not given; remark: listed apart in the source
Compound,Tm shift [1],Tm at 3000 μM TDP [2],Tm at 3000 μM gluconate [3]
"O=C(O)CCSCCC(=O)O [TDP, 3,3′-Thiodipropionic acid]",VPARA-01760 also showed temperature shifts with TDP or gluconate,56 °C,–
O=C(O)[C@H](O)[C@@H](O)[C@H](O)[C@H](O)CO [gluconate],VPARA-01760 also showed temperature shifts with TDP or gluconate,–,83 °C
